In ChEMBL document CHEMBL1201862, “PubChem BioAssay data set” (2004):
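The compound was tested at five concentrations on cells cultured in 96-well plates, with a 48-hour exposure period. Here, GI50 denotes the concentration required for 50% inhibition of growth.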 The source made the active and inactive calls. Cut-off read from the data, not from the text of the source: active = GI50 up to about 1.1 µM and inactive = higher.

Tests used:
Assay in all cases: NCI-60 cell line screen, 48 h
HCT-15 = system: HCT-15
UO-31 = system: UO-31
MOLT-4 = system: MOLT-4
HOP-62 = system: HOP-62
HL-60 = system: HL-60
SR = system: SR
RXF 393 = system: RXF 393
A549 = system: A549
HOP-92 = system: HOP-92
RPMI-8226 = system: RPMI-8226
Malme-3M = system: Malme-3M
SW-620 = system: SW-620
OVCAR-3 = system: OVCAR-3
786-0 = system: 786-0
SF-539 = system: SF-539
IGROV-1 = system: IGROV-1
DLD-1 = system: DLD-1
OVCAR-5 = system: OVCAR-5
NCI/ADR-RES = system: NCI/ADR-RES
MDA-MB-435 = system: MDA-MB-435

Row | Structure (SMILES) | GI50 (HCT-15) [µM] | GI50 (UO-31) | GI50 (MOLT-4) | GI50 (HOP-62) | GI50 (HL-60) | GI50 (SR) | GI50 (RXF 393) | GI50 (A549) | GI50 (HOP-92) | GI50 (RPMI-8226) | GI50 (Malme-3M) | GI50 (SW-620) | GI50 (OVCAR-3) | GI50 (786-0) | GI50 (SF-539) | GI50 (IGROV-1) | GI50 (DLD-1) | GI50 (OVCAR-5) | GI50 (NCI/ADR-RES) | GI50 (MDA-MB-435)
1 | O=C1Nc2ccc(Br)cc2/C1=N/Nc1ccc([N+](=O)[O-])cc1 | 27.2 | 30.1 µM (inactive) | 34.3 µM (inactive) | 18.9 µM (inactive) | 12.6 µM (inactive) | 22.8 µM (inactive) | 19.5 µM (inactive) | 19 µM (inactive) | 13.6 µM (inactive) | 16.4 µM (inactive) | 24.1 µM (inactive) | 26.4 µM (inactive) | 19.9 µM (inactive) | 11.4 µM (inactive) | 14.2 µM (inactive) | 38.8 µM (inactive) | 31.5 µM (inactive) | – | – | –
2 | Cc1ccc(NC(=O)/C(C#N)=C/c2ccccc2)c(C)c1 | > 100 | > 100 µM (inactive) | > 100 µM (inactive) | > 100 µM (inactive) | > 100 µM (inactive) | > 100 µM (inactive) | > 100 µM (inactive) | > 100 µM (inactive) | > 100 µM (inactive) | > 100 µM (inactive) | > 100 µM (inactive) | > 100 µM (inactive) | > 100 µM (inactive) | > 100 µM (inactive) | > 100 µM (inactive) | > 100 µM (inactive) | > 100 µM (inactive) | > 100 µM (inactive) | – | –
3 | COc1ccc2nc(C)cc(NCCCCCCCCCNc3cc(C)nc4ccc(OC)cc34)c2c1 | 2.3 | 13.6 µM (inactive) | 1.29 µM (inactive) | 2.26 µM (inactive) | 0.824 µM (active) | 0.486 µM (active) | 2.05 µM (inactive) | 1.5 µM (inactive) | 1.24 µM (inactive) | 1.11 µM (active) | 9.27 µM (inactive) | 0.957 µM (active) | 1.24 µM (inactive) | 1.03 µM (active) | 1.27 µM (inactive) | 2.99 µM (inactive) | 2.31 µM (inactive) | 2.55 µM (inactive) | 5.43 µM (inactive) | 1.58 µM (inactive)
4 | CC[C@@]1(O)C[C@H](OC2CC(N(C)C)C(OC3CC(O)C(OC4CCC(=O)C(C)O4)C(C)O3)C(C)O2)c2c(cc3c(c2O)C(=O)c2c(O)ccc(O)c2C3=O)[C@H]1C(=O)OC (stereo partly drawn) | 9.75e-05 | 4.22e-05 µM (active) | 3.55e-05 µM (active) | 8.75e-05 µM (active) | 6.56e-05 µM (active) | 0.000101 µM (active) | 0.000344 µM (active) | 6.7e-05 µM (active) | 0.0008 µM (active) | 7.83e-05 µM (active) | 9.06e-05 µM (active) | 5.2e-05 µM (active) | 0.000233 µM (active) | < 0.01 µM (active) | 0.000114 µM (active) | 5.35e-05 µM (active) | < 1e-05 µM (active) | 0.000365 µM (active) | – | 0.000929 µM (active)
5 | O=C(Cc1ccccc1)Oc1ccc2c(-c3ccccc3)c(C(=O)Nc3ccc(Cl)cc3)c(=O)oc2c1 | > 100 | > 100 µM (inactive) | > 100 µM (inactive) | > 100 µM (inactive) | > 100 µM (inactive) | > 100 µM (inactive) | > 100 µM (inactive) | > 100 µM (inactive) | > 100 µM (inactive) | > 100 µM (inactive) | > 100 µM (inactive) | > 100 µM (inactive) | > 100 µM (inactive) | > 100 µM (inactive) | > 100 µM (inactive) | > 100 µM (inactive) | > 100 µM (inactive) | > 100 µM (inactive) | – | –
6 | Cc1ccccc1Nc1nc2c(s1)C(=O)c1ccccc1C2=O | 3.78 | 5.07 µM (inactive) | 2.43 µM (inactive) | 16.4 µM (inactive) | 2.31 µM (inactive) | 3.27 µM (inactive) | 8.87 µM (inactive) | 10.2 µM (inactive) | 11.9 µM (inactive) | 2.93 µM (inactive) | 15 µM (inactive) | 2.49 µM (inactive) | 2.24 µM (inactive) | 2.95 µM (inactive) | 5.73 µM (inactive) | 9.55 µM (inactive) | 5.73 µM (inactive) | 21.5 µM (inactive) | – | –
7 | Fc1cccc(C2SCc3nc4ccccc4n32)c1F (stereo not drawn) | 59.3 | 41.9 µM (inactive) | 21.1 µM (inactive) | > 100 µM (inactive) | 16.1 µM (inactive) | 28.4 µM (inactive) | 54.2 µM (inactive) | 69 µM (inactive) | 23 µM (inactive) | 31.1 µM (inactive) | 38 µM (inactive) | > 100 µM (inactive) | 29.1 µM (inactive) | 92.9 µM (inactive) | > 100 µM (inactive) | 73.8 µM (inactive) | > 100 µM (inactive) | > 100 µM (inactive) | – | –
